The term IC50 denotes the concentration at which inhibition is half-maximal.

Results on 14 compounds are retold here after patent US7354938B2, “Pyrazole compounds and uses related thereto” (Amgen Inc., priority 2004, dated 2008).

In this experiment the target is T1, human HSD1 (recombinant HSD1) (Homo sapiens, UniProt P28845).
T1 construct: made in house
T1 sequence (P28845 whole entry): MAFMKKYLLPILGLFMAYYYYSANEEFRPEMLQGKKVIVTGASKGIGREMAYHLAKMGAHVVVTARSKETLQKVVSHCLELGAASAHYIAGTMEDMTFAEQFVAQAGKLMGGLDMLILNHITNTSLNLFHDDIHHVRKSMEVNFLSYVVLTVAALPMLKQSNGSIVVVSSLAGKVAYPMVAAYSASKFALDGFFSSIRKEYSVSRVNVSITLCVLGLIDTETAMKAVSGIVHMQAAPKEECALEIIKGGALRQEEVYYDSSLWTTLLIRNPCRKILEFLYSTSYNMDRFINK
Nature of the experiment: In vitro HSD1 activity inhibitory action (SPA, conversion of cortisone to cortisol). As to conditions: recombinant human HSD1 expressed in baculo-virus system, 16 nM 3H cortisone, 500 μM NADPH, room temperature, 90 min. Type of experiment: biochemical. The protocol: In Vitro HSD1 (Hydroxysteroid Dehydrogenase 1) Activity Inhibitory Action
The HSD1 inhibitory activity was examined by quantitative determination by an SPA (scintillation proximity assay) system of the suppressive action on the conversion from cortisone to cortisol using human HSD1 (hereinafter recombinant HSD1) expressed using a baculo-virus system as an enzyme source. For the reaction, a reagent was added to a 96 well plate (96 well Opti-plates™-96 (Packard)) to the following final concentration and a volume of 100 μl was reacted at room temperature for 90 min. The reaction solution used was 0.1 μg/mL recombinant HSD1,500 μM NADPH, 16 nM ^3H cortisone (Amersham Biosciences, 1.78 Tbq/mol) dissolved in 0.1% BSA (Sigma)-containing PBS and the test drug was 2 μl of a compound solution (dissolved in DMSO). After 90 min, the reaction was stopped by adding PBS (40 μl, containing 0.1% BSA (Sigma)) containing 0.08 μg of anti-cortisol mouse monoclonal antibody (East Coast Biologics), 365 μg SPA PVT mouse antibody-binding beads (Amersham Biosciences) and 175 μM carbenoxolone (Sigma) to the reaction solution. After the completion of the reaction, the plate was incubated overnight at room temperature and the radioactivity was measured by Topcount (Packard). For control, the value (0% inhibition) of the well containing 2 μl of DMSO instead of the test drug was used, and for positive control, the value (100% inhibition) of the well containing carbenoxolone instead of the test drug at the final concentration of 50 μM was used. The inhibition (%) of the test drug was calculated by ((value of control−value of test drug)/(value of control−value of positive control))×100 (%). The IC50 value was analyzed using a computer-based curve fitting soft.
Regarding `Cc1c(-c2ccc(Cl)cc2Cl)n[nH]c1C1(c2ccccc2)CC1` [Ex. 1-1, 3-(2,4-dichlorophenyl)-4-methyl-5-((1-phenylcyclopropane)-1-yl)-pyrazole], the IC50 was less than 0.01 µM. With `Clc1ccc(-c2cc(CCc3ccccc3Cl)n[nH]2)c(Cl)c1` [Ex. 1-2], the 50% inhibitory concentration (IC50) lay within 0.01 to 1 µM. As to `Cc1c(CCc2ccccc2Cl)n[nH]c1-c1ccc(Cl)cc1Cl` [Ex. 1-3], the IC50 is less than 0.01 µM. In the case of `CCOC(=O)c1c(-c2ccc(Cl)cc2Cl)n[nH]c1C1(c2ccccc2)CC1` [Ex. 1-4], the IC50 lay within 0.01 to 1 µM.

On to `Clc1ccc(-c2cc(C3(c4ccccc4)CC3)[nH]n2)c(Cl)c1` [Ex. 1-5], for which the half-maximal inhibitory concentration (IC50) lay within 0.01 to 1 µM. Take `OCc1c(-c2ccc(Cl)cc2Cl)n[nH]c1Cc1ccc(F)cc1` [Ex. 1-8]: the IC50 lay in the range of 0.01 to 1 µM. As to `Cc1c(-c2ccc(Cl)cc2Cl)n[nH]c1Cc1ccc(F)cc1` [Ex. 1-9], the IC50 lay in the range of 0.01 to 1 µM. Regarding `Cc1c(C2CCN(c3c(Cl)cncc3Cl)CC2)n[nH]c1C1(c2ccccc2)CC1` [Ex. 1-10], the IC50 lay within 0.01 to 1 µM. With `Cc1c(C2CCN(c3ncccc3Cl)CC2)n[nH]c1C1(c2ccccc2)CC1` [Ex. 1-11], the IC50 is less than 0.01 µM. `CC(C)c1c(-c2ccccc2)n[nH]c1C1(c2ccc(F)cc2)CC1` [Ex. 1-12]: the IC50 is less than 0.01 µM.

As to `Cc1c(-c2ccccc2)n[nH]c1C1(c2ccc(F)cc2)CC1` [Ex. 1-13], the IC50 is less than 0.01 µM. Turning to `Cc1c(-c2ccc(N3CCOC3=O)cc2Cl)n[nH]c1C1(c2ccccc2)CC1` [Ex. 1-14], the IC50 fell in the range of 0.01 to 1 µM.

With `Cc1c(-c2ccccn2)n[nH]c1C1(c2ccc(F)cc2)CC1` [Ex. 1-15], the IC50 was less than 0.01 µM. Consider `Cc1c(C2(c3ccc(F)cc3)CC2)n[nH]c1C1(c2ccc(F)cc2)CC1` [Ex. 1-16], for which the IC50 was less than 0.01 µM.
